Series [1] can be described thus: Solubility in 100 mM glycylglycine buffer at pH 5.0 incubated for 18 hrs by UPLC analysis. The class given is physicochemical.
Series [2] deals with T1, Calcitonin receptor (Homo sapiens, UniProt P30988).
T1 sequence (P30988 whole entry): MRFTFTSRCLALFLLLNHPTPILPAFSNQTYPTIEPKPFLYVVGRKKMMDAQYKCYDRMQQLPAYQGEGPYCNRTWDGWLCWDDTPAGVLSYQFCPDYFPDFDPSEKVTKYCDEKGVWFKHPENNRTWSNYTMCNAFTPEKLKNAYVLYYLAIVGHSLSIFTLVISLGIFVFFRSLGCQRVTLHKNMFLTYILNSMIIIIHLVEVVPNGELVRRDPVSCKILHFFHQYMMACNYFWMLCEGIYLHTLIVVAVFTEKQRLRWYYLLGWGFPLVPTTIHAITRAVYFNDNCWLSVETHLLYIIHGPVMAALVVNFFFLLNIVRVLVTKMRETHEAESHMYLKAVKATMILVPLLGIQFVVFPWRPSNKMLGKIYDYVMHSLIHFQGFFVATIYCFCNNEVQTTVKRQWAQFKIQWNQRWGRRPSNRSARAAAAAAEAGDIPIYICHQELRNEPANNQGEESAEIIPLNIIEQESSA
Kind of series: Agonist activity at human calcitonin receptor expressed in BHK570 cells assessed as increase in intracellular cAMP concentration incubated for 3 hrs in absence of albumin by CRE luciferase reporter gene assay. The class given is functional, cell-based. (In general: Reporter assays use an easily measured gene product as a stand-in for the process of interest.)

For series [3], the target named is T2, Amylin receptor AMY3; CALCR/RAMP3 (Homo sapiens, UniProt O60896+P30988).
T2 sequence (P30988 whole entry): T1 sequence (P30988 whole entry)
T2 sequence (O60896 whole entry): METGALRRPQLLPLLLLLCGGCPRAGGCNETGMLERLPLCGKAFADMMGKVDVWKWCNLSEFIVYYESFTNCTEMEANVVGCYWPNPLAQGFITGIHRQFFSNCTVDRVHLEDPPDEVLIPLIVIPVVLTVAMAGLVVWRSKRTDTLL
Kind of series: Agonist activity at human amylin receptor expressed in BHK570 cells co-expressing RAMP3 assessed as increase in intracellular cAMP concentration incubated for 3 hrs in absence of albumin by CRE luciferase reporter gene assay. The class given is functional, cell-based.

Series [4] in a line: Solubility in 100 mM glycylglycine buffer at pH 4.0 incubated for 18 hrs by UPLC analysis. The class given is physicochemical.
Series [5] can be described thus: Solubility in 100 mM bistrispropane buffer at pH 6.0 incubated for 18 hrs by UPLC analysis. The class given is physicochemical.
Series [6] is described as follows: Solubility in 100 mM bistrispropane buffer at pH 7.5 incubated for 18 hrs by UPLC analysis. The class given is physicochemical.
Series [7] has as its target T1, Calcitonin receptor. Kind of series: Displacement of [125I]-labeled human calcitonin from human calcitonin receptor expressed in BHK tkts13 whole cells incubated for 60 mins by scintillation proximity assay. The class given is cell-based. (In general: Displacement assays read how much labelled ligand stays bound in the presence of the test substance.)
The nature of series [8]: Solubility in 100 mM bistrispropane buffer at pH 8.0 incubated for 18 hrs by UPLC analysis. The class given is physicochemical.
The nature of series [9]: Solubility in 100 mM bistrispropane buffer at pH 7.0 incubated for 18 hrs by UPLC analysis. The class given is physicochemical.
Series [10] is described as follows: Solubility in 100 mM bistrispropane buffer at pH 6.5 incubated for 18 hrs by UPLC analysis. The class given is physicochemical.
A short description of series [11]: Solubility in 100 mM glycylglycine buffer at pH 3.0 incubated for 18 hrs by UPLC analysis. The class given is physicochemical.
In series [12] the target is T2, Amylin receptor AMY3; CALCR/RAMP3. In words: Displacement of [125I]-labeled rat amylin from human amylin receptor expressed in BHK tkts13 whole cells co-expressing RAMP3 incubated for 60 mins by scintillation proximity assay. The class given is cell-based.
For series [13], the target named is T1, Calcitonin receptor. Kind of series: Agonist activity at human calcitonin receptor expressed in BHK570 cells assessed as increase in intracellular cAMP concentration incubated for 3 hrs in presence of 10% FBS by CRE luciferase reporter gene assay. The class given is functional, cell-based.
Series [14] has as its target T2, Amylin receptor AMY3; CALCR/RAMP3. Kind of series: Agonist activity at human amylin receptor expressed in BHK570 cells co-expressing RAMP3 assessed as increase in intracellular cAMP concentration incubated for 3 hrs in presence of 10% FBS by CRE luciferase reporter gene assay. The class given is functional, cell-based.

Structures are written as SMILES. Numbered stars: 1 amine (or outer) side, 2 acyl side, 3 side chain; on linkers, the order of the positions; unused ones are H or OH. Peptide text beside a SMILES is read from it. * marks the point of attachment. C20 diacid = O=C(O)CCCCCCCCCCCCCCCCCCC(=O)*; C18 diacid = O=C(O)CCCCCCCCCCCCCCCCC(=O)*; γGlu = O=C(O)[C@H](CCC(=O)[*:2])N[*:1]

On to `CC(C)C[C@H](NC(=O)[C@H](C)NC(=O)[C@H](C)NC(=O)[C@@H](NC(=O)[C@H](CO)NC(=O)[C@H](CC(C)C)NC(=O)[C@H](CCC(N)=O)NC(=O)[C@H](CO)NC(=O)[C@H](C)NC(=O)CC[C@H](NC(=O)CCCCCCCCCCCCCCCCC(=O)O)C(=O)O)[C@@H](C)O)C(=O)NCC(=O)N[C@@H](CCCNC(=N)N)C(=O)N[C@@H](CC(C)C)C(=O)N[C@@H](CO)C(=O)N[C@@H](C)C(=O)N[C@@H](CCC(=O)O)C(=O)N[C@@H](CC(C)C)C(=O)N[C@@H](Cc1cnc[nH]1)C(=O)N[C@@H](CCC(=O)O)C(=O)N[C@@H](CC(C)C)C(=O)N[C@@H](C)C(=O)N[C@H](C(=O)N[C@@H](CC(C)C)C(=O)N1CCC[C@H]1C(=O)N[C@@H](CCCNC(=N)N)C(=O)N[C@H](C(=O)N[C@@H](CCC(=O)O)C(=O)N[C@H](C(=O)NCC(=O)N[C@@H](CO)C(=O)NCC(=O)N[C@@H](CO)C(=O)N1CCC[C@H]1C(N)=O)[C@@H](C)O)[C@@H](C)O)[C@@H](C)O` ({C18 diacid-γGlu}-ASQLSTAALGRLSAELHELATLPRTETGSGSP-NH2), for which the solubility at 18 h in series [1], in [4], in [5], in [6], in series [8] and in series [9] was no less than 200 µM in each case. Further, the solubility at 18 h in series [10] and in [11] was no less than 200 µM each time. Besides, the EC50 is 11 pM on Calcitonin receptor [2] and 9 pM in series [3]. The IC50 on Calcitonin receptor [7] is 605 pM.
On to `CC(C)C[C@H](NC(=O)[C@H](C)NC(=O)[C@H](C)NC(=O)[C@@H](NC(=O)[C@H](CO)NC(=O)[C@H](CC(C)C)NC(=O)[C@H](CCC(=O)O)NC(=O)[C@H](CO)NC(=O)[C@H](C)NC(=O)[C@H](CCC(=O)O)NC(=O)CCCCCCCCCCCCCCCCC(=O)O)[C@@H](C)O)C(=O)NCC(=O)N[C@@H](CCCNC(=N)N)C(=O)N[C@@H](CC(C)C)C(=O)N[C@@H](CO)C(=O)N[C@@H](C)C(=O)N[C@@H](CCC(=O)O)C(=O)N[C@@H](CC(C)C)C(=O)N[C@@H](Cc1cnc[nH]1)C(=O)N[C@@H](CCC(=O)O)C(=O)N[C@@H](CC(C)C)C(=O)N[C@@H](C)C(=O)N[C@H](C(=O)N[C@@H](CC(C)C)C(=O)N1CCC[C@H]1C(=O)N[C@@H](CCCNC(=N)N)C(=O)N[C@H](C(=O)N[C@@H](CCC(=O)O)C(=O)N[C@H](C(=O)NCC(=O)N1CCC[C@H]1C(=O)N[C@@H](CCC(=O)O)C(=O)N[C@@H](Cc1cnc[nH]1)C(=O)N1CCC[C@H]1C(N)=O)[C@@H](C)O)[C@@H](C)O)[C@@H](C)O` ({C18 diacid}-EASELSTAALGRLSAELHELATLPRTETGPEHP-NH2), for which the solubility at 18 h in [1], in series [4], in [5], in series [6], in series [8] and in [9] was no less than 200 µM each time. Moreover, the solubility at 18 h in series [10] and in series [11] was no less than 200 µM each time. Besides, the EC50 at Calcitonin receptor [2] is 17 pM; in series [3] it was 20 pM. The IC50 was 1170 pM at Calcitonin receptor [7] and 1270 pM in series [12].
`CC(C)C[C@H](NC(=O)[C@H](CCCNC(=N)N)NC(=O)CNC(=O)[C@H](CC(C)C)NC(=O)[C@@H](NC(=O)[C@H](C)NC(=O)[C@@H](NC(=O)[C@H](CO)NC(=O)[C@H](CC(C)C)NC(=O)[C@H](CCC(=O)O)NC(=O)[C@H](CO)NC(=O)[C@H](C)NC(=O)CC[C@H](NC(=O)CCCCCCCCCCCCCCCCCCC(=O)O)C(=O)O)[C@@H](C)O)[C@@H](C)O)C(=O)N[C@@H](CO)C(=O)N[C@@H](C)C(=O)N[C@@H](CCC(=O)O)C(=O)N[C@@H](CC(C)C)C(=O)N[C@@H](Cc1cnc[nH]1)C(=O)N[C@@H](CCC(=O)O)C(=O)N[C@@H](CC(C)C)C(=O)N[C@@H](CO)C(=O)N[C@H](C(=O)N[C@@H](Cc1ccc(O)cc1)C(=O)N1CCC[C@H]1C(=O)N[C@@H](CCCNC(=N)N)C(=O)N[C@H](C(=O)N[C@@H](CCC(=O)O)C(=O)N[C@H](C(=O)NCC(=O)N[C@@H](CO)C(=O)NCC(=O)N[C@@H](CO)C(=O)N1CCC[C@H]1C(N)=O)[C@@H](C)O)[C@@H](C)O)[C@@H](C)O` ({C20 diacid-γGlu}-ASELSTATLGRLSAELHELSTYPRTETGSGSP-NH2): the EC50 in series [3] is 22 pM; on Calcitonin receptor [13] it was 105 pM; in series [14], 150 pM. Besides, the solubility at 18 h in [4], in series [5], in series [6], in [8], in [9] and in series [10] was no less than 200 µM throughout. The solubility at 18 h in series [11] was no less than 200 µM. The values for the IC50 (at Calcitonin receptor [7]; in [12]) were 2940 pM and 2610 pM, respectively.
Take `CC(C)C[C@H](NC(=O)[C@H](CCCNC(=N)N)NC(=O)CNC(=O)[C@H](CC(C)C)NC(=O)[C@@H](NC(=O)[C@H](C)NC(=O)[C@@H](NC(=O)[C@H](CO)NC(=O)[C@H](CC(C)C)NC(=O)[C@H](CCC(N)=O)NC(=O)[C@H](CO)NC(=O)[C@H](C)NC(=O)[C@H](CCC(=O)O)NC(=O)CC[C@H](NC(=O)CCCCCCCCCCCCCCCCCCC(=O)O)C(=O)O)[C@@H](C)O)C(C)C)C(=O)N[C@@H](CO)C(=O)N[C@@H](CCC(N)=O)C(=O)N[C@@H](CCC(=O)O)C(=O)N[C@@H](CC(C)C)C(=O)N[C@@H](Cc1cnc[nH]1)C(=O)N[C@@H](CCC(=O)O)C(=O)N[C@@H](CC(C)C)C(=O)N[C@@H](CCC(N)=O)C(=O)N[C@H](C(=O)N[C@@H](Cc1ccc(O)cc1)C(=O)N1CCC[C@H]1C(=O)N[C@@H](CCCNC(=N)N)C(=O)N[C@H](C(=O)NCC(=O)N[C@H](C(=O)NCC(=O)N[C@@H](CO)C(=O)NCC(=O)N[C@H](C(=O)N[C@@H](Cc1ccc(O)cc1)C(N)=O)[C@@H](C)O)[C@@H](C)O)[C@@H](C)O)[C@@H](C)O` ({C20 diacid-γGlu}-EASQLSTAVLGRLSQELHELQTYPRTGTGSGTY-NH2): the EC50 at Calcitonin receptor [2] is 56 pM; in [3], 66 pM. Also, the IC50 on Calcitonin receptor [7] was 796 pM; in [12], 338 pM.

By solubility is commonly meant the dissolved amount per volume that the medium holds. By EC50 is commonly meant the concentration that produces a half-maximal response. One may read the IC50 as the concentration that gives 50% inhibition.
